Assay results as given in US11219656B2 (Industry-Academic Cooperation Foundation, Yonsei University, priority 2011, dated 2022).

How the values were obtained:
[1] = system: ALP (alkaline phosphatase) in primary osteoblast (POB) cells; test: ALP staining in differentiated primary osteoblast cells; format: cell-based; details: 20 μM, differentiated and stained for 9 days (FIG. 8)
Experimental: In addition, in order to confirm the activity of ALP (alkaline phosphatase) showing the activation of bones, 20 μM of gallocatechin was treated with primary osteoblast (POB) cells, and allowed to differentiate and stain for 9 days.

[2] = system: ALP (alkaline phosphatase); test: ALP activity analysis; format: cell-based; details: within the concentration gradient (FIG. 9 and FIG. 10)
SD-based rat = details: single oral dose of 1 g/kg
Experimental: 6-week old specific pathogen-free (SPF) SD-based rat supplied from the DAEHAN Experiment Supply Center was used and the acute toxicity experiments were conducted as follows.
The animal mortality, clinical symptoms, and change in the body weight were observed and then hematologic testing and blood biochemical tests were conducted.

calvaria = test: Calvaria thickness measurement, gallocatechin and methyl vanillate treatment; format: cell-based; details: calvaria of 4-day-old postnatal mice under differentiation, one week (FIG. 7)
Experimental: While inducing the differentiation in the calvaria of 4-day-old postnatal mice supplied by Orient Bio. 2 nM of gallocatechin and 0.2 nM of methyl vanillate were treated for one week.

Row | Structure (SMILES) | expression of ALP (staining) [1] | activity of ALP [2] | specific clinical symptoms and died animals (SD-based rat) | toxic changes in body weight, blood tests, blood biochemical tests and autopsy findings (SD-based rat) | thickness of the calvaria (calvaria; 2 nM gallocatechin) | thickness of the calvaria (calvaria; 0.2 nM methyl vanillate)
1 | Oc1cc(O)c2c(c1)O[C@H](c1cc(O)c(O)c(O)c1)[C@@H](O)C2 [gallocatechin] | increased | increased | not found | not observed | increased | –
2 | COC(=O)c1ccc(O)c(OC)c1 [methyl vanillate] | – | increased | – | – | – | increased
